Data reported in article PMC4329189, “A SelB/EF-Tu/aIF2γ-like protein from Methanosarcina mazei in the GTP-bound form binds cysteinyl-tRNA^Cys” (Journal of Structural and Functional Genomics, 2015).
pKd: −log10 of the molar value.

Molecular target: T1, MM1309 (Methanosarcina mazei, UniProt Q8PXB3)
T1 construct: gene MM_1309; full length, 350 residues, N-terminal His tag from pET28c kept (tag residues visible in crystal), expressed in E. coli; SeMet-substituted protein for the GMPPNP and GDP crystals
T1 sequence (Q8PXB3 1-350): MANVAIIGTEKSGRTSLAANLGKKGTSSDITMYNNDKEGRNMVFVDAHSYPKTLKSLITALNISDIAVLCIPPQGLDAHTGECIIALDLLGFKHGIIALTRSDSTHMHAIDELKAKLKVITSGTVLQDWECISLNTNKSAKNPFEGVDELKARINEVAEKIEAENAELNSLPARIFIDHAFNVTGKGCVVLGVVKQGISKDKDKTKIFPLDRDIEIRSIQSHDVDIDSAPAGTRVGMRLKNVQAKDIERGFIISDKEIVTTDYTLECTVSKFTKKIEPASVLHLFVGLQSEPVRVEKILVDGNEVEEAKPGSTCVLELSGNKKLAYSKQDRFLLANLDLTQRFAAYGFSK
Test: isothermal titration calorimetry
Format: binding

pKd | Structure (SMILES)
4.58 | Nc1nc2c(ncn2[C@@H]2O[C@H](COP(=O)(O)OP(=O)(O)O)[C@@H](O)[C@H]2O)c(=O)[nH]1 [GDP]
3.65 | Nc1nc2c(ncn2[C@@H]2O[C@H](COP(=O)(O)OP(=O)(O)NP(=O)(O)O)[C@@H](O)[C@H]2O)c(=O)[nH]1 [GMPPNP]
6.37 | Nc1nc2c(ncn2[C@@H]2O[C@H](COP(=O)(O)OP(=O)(O)OP(=O)(O)O)[C@@H](O)[C@H]2O)c(=O)[nH]1 [GTP]
